According to PubChem BioAssay AID2060912 (Molecular Pharmacology Branch, DTP, NCI, 2025):

Test system: HUVEC/MSC spheroids viability
Experiment: Human HUVEC/MSC cell line growth inhibition [KRAS2];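 as to viability, T/C: percent of DMSO vehicle control luminescence so 100% = untreated viability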
Settings: for IC50: curve of first compound; for viability, T/C: stronger effect = lower value
Summary of the method: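 Concentration ranges start near each agent's clinical Cmax, or at 10 microM if none is established, and fall by half-log increments. These ranges are tested as single agents and combinations on endothelial/mesenchymal stem cell spheroids lacking tumour cells.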

[1] = second compound 0.0316 µM, first compound 0.0316 µM
[2] = second compound 0.0316 µM, first compound 0.1 µM
[3] = second compound 0.1 µM, first compound 0.0316 µM
[4] = second compound 0.1 µM, first compound 0.1 µM
[5] = second compound 0.316 µM, first compound 0.0316 µM
[6] = second compound 0.316 µM, first compound 0.1 µM
[7] = second compound 1 µM, first compound 0.0316 µM
[8] = second compound 1 µM, first compound 0.1 µM
[9] = second compound 3.16 µM, first compound 0.0316 µM
[10] = second compound 3.16 µM, first compound 0.1 µM
[11] = second compound 10 µM, first compound 0.0316 µM
[12] = second compound 10 µM, first compound 0.1 µM

Molecule `Cn1ncnc1[C@H]1c2n[nH]c(=O)c3cc(F)cc(c23)N[C@@H]1c1ccc(F)cc1` + CNCc1ccccc1-c1csc(C(C)Nc2nc(C)nc3cc(OC)c(OC)cc23)c1 has an IC50 (second compound 0.0316 µM) greater than 0.1 µM, an IC50 (second compound 0.1 µM) greater than 0.1 µM and an IC50 (second compound 0.316 µM) greater than 0.1 µM. For the same molecule, the IC50 (second compound 1 µM) was greater than 0.1 µM, the IC50 (second compound 3.16 µM) was greater than 0.1 µM and the IC50 (second compound 10 µM) was less than 0.000316 µM. It also gave a viability, T/C (second compound 0.0316 µM, first compound 0.000316 µM) of 97.8%, a viability, T/C (second compound 0.0316 µM, first compound 0.001 µM) of 85.9% and a viability, T/C (second compound 0.0316 µM, first compound 0.00316 µM) of 81.2%. The viability, T/C (second compound 0.0316 µM, first compound 0.01 µM) was 73.2%, the viability, T/C [1] was 76.8% and the viability, T/C [2] was 78.4%. The viability, T/C (second compound 0.1 µM, first compound 0.000316 µM) was 93.3%, the viability, T/C (second compound 0.1 µM, first compound 0.001 µM) was 90.2% and the viability, T/C (second compound 0.1 µM, first compound 0.00316 µM) was 90.2%. The viability, T/C (second compound 0.1 µM, first compound 0.01 µM) was 70.6%, the viability, T/C [3] was 81.8% and the viability, T/C [4] was 79.7%. It also gave a viability, T/C (second compound 0.316 µM, first compound 0.000316 µM) of 65.4%, a viability, T/C (second compound 0.316 µM, first compound 0.001 µM) of 90.5% and a viability, T/C (second compound 0.316 µM, first compound 0.00316 µM) of 79.9%. For the same molecule, the viability, T/C (second compound 0.316 µM, first compound 0.01 µM) was 76.5%, the viability, T/C [5] was 76.2% and the viability, T/C [6] was 69.2%. The viability, T/C (second compound 1 µM, first compound 0.000316 µM) was 67.3%, the viability, T/C (second compound 1 µM, first compound 0.001 µM) was 76.9% and the viability, T/C (second compound 1 µM, first compound 0.00316 µM) was 67%. The viability, T/C (second compound 1 µM, first compound 0.01 µM) was 75.3%, the viability, T/C [7] was 75.9% and the viability, T/C [8] was 72%. The viability, T/C (second compound 3.16 µM, first compound 0.000316 µM) was 89%, the viability, T/C (second compound 3.16 µM, first compound 0.001 µM) was 86.8% and the viability, T/C (second compound 3.16 µM, first compound 0.00316 µM) was 94.7%. It also gave a viability, T/C (second compound 3.16 µM, first compound 0.01 µM) of 80.7%, a viability, T/C [9] of 77.8% and a viability, T/C [10] of 75%. It also gave a viability, T/C (second compound 10 µM, first compound 0.000316 µM) of 0.29%, a viability, T/C (second compound 10 µM, first compound 0.001 µM) of 0.28% and a viability, T/C (second compound 10 µM, first compound 0.00316 µM) of 0.32%. The viability, T/C (second compound 10 µM, first compound 0.01 µM) was 0.29%, the viability, T/C [11] was 0.31% and the viability, T/C [12] was 0.28%.
For `CC1(C)CCC(CN2CCN(c3ccc(C(=O)NS(=O)(=O)c4ccc(NCC5CCOCC5)c([N+](=O)[O-])c4)c(Oc4cnc5[nH]ccc5c4)c3)CC2)=C(c2ccc(Cl)cc2)C1` + COc1cc2nc(C)nc(NC(C)c3cc(N)cc(C(F)(F)F)c3)c2cc1OC1CCOC1, the IC50 (second compound 0.0316 µM) was 5.09 µM, the IC50 (second compound 0.1 µM) was 4.59 µM and the IC50 (second compound 0.316 µM) was 4.78 µM. It also gave an IC50 (second compound 1 µM) of 5.01 µM, an IC50 (second compound 3.16 µM) of 5.49 µM and an IC50 (second compound 10 µM) of 4.61 µM. The viability, T/C [1] was 105%, the viability, T/C [2] was 116% and the viability, T/C (second compound 0.0316 µM, first compound 0.316 µM) was 105%. For the same molecule, the viability, T/C (second compound 0.0316 µM, first compound 1 µM) was 96.6%, the viability, T/C (second compound 0.0316 µM, first compound 3.16 µM) was 82.3% and the viability, T/C (second compound 0.0316 µM, first compound 10 µM) was 6.99%. The viability, T/C [3] was 98.5%, the viability, T/C [4] was 94.6% and the viability, T/C (second compound 0.1 µM, first compound 0.316 µM) was 102%. It also gave a viability, T/C (second compound 0.1 µM, first compound 1 µM) of 100%, a viability, T/C (second compound 0.1 µM, first compound 3.16 µM) of 72.8% and a viability, T/C (second compound 0.1 µM, first compound 10 µM) of 2.34%. For the same molecule, the viability, T/C [5] was 82.7%, the viability, T/C [6] was 104% and the viability, T/C (second compound 0.316 µM, first compound 0.316 µM) was 76.6%. For the same molecule, the viability, T/C (second compound 0.316 µM, first compound 1 µM) was 81.5%, the viability, T/C (second compound 0.316 µM, first compound 3.16 µM) was 76.3% and the viability, T/C (second compound 0.316 µM, first compound 10 µM) was 5.03%. It also gave a viability, T/C [7] of 95.7%, a viability, T/C [8] of 79.5% and a viability, T/C (second compound 1 µM, first compound 0.316 µM) of 84%. The viability, T/C (second compound 1 µM, first compound 1 µM) was 92%, the viability, T/C (second compound 1 µM, first compound 3.16 µM) was 81% and the viability, T/C (second compound 1 µM, first compound 10 µM) was 3.29%. The viability, T/C [9] was 73.1%, the viability, T/C [10] was 105% and the viability, T/C (second compound 3.16 µM, first compound 0.316 µM) was 110%. It also gave a viability, T/C (second compound 3.16 µM, first compound 1 µM) of 95.2%, a viability, T/C (second compound 3.16 µM, first compound 3.16 µM) of 87.7% and a viability, T/C (second compound 3.16 µM, first compound 10 µM) of 8.97%. The viability, T/C [11] was 61.3%, the viability, T/C [12] was 70.5% and the viability, T/C (second compound 10 µM, first compound 0.316 µM) was 78.9%. The viability, T/C (second compound 10 µM, first compound 1 µM) was 68.2%, the viability, T/C (second compound 10 µM, first compound 3.16 µM) was 80.6% and the viability, T/C (second compound 10 µM, first compound 10 µM) was 5.02%.
`CC1COCCN1c1cc(-c2ccnn2C)c2ccnc(-c3ccn[nH]3)c2n1` (stereo unspecified) + C=CC(=O)N1CCN(c2nc(=O)n(-c3c(C)ccnc3C(C)C)c3nc(-c4c(O)cccc4F)c(F)cc23)C(C)C1 gave an IC50 (second compound 0.0316 µM) of 2.52 µM, an IC50 (second compound 0.1 µM) greater than 3 µM and an IC50 (second compound 0.316 µM) of 2.75 µM. The IC50 (second compound 1 µM) was greater than 3 µM, the IC50 (second compound 3.16 µM) was greater than 3 µM and the IC50 (second compound 10 µM) was greater than 3 µM. The viability, T/C (second compound 0.0316 µM, first compound 0.00949 µM) was 82.3%, the viability, T/C (second compound 0.0316 µM, first compound 0.03 µM) was 97.5% and the viability, T/C (second compound 0.0316 µM, first compound 0.0949 µM) was 75%. For the same molecule, the viability, T/C (second compound 0.0316 µM, first compound 0.3 µM) was 73.2%, the viability, T/C (second compound 0.0316 µM, first compound 0.949 µM) was 64.6% and the viability, T/C (second compound 0.0316 µM, first compound 3 µM) was 47.4%. It also gave a viability, T/C (second compound 0.1 µM, first compound 0.00949 µM) of 113%, a viability, T/C (second compound 0.1 µM, first compound 0.03 µM) of 83.7% and a viability, T/C (second compound 0.1 µM, first compound 0.0949 µM) of 96.6%. For the same molecule, the viability, T/C (second compound 0.1 µM, first compound 0.3 µM) was 83.2%, the viability, T/C (second compound 0.1 µM, first compound 0.949 µM) was 50.7% and the viability, T/C (second compound 0.1 µM, first compound 3 µM) was 51.8%. It also gave a viability, T/C (second compound 0.316 µM, first compound 0.00949 µM) of 114%, a viability, T/C (second compound 0.316 µM, first compound 0.03 µM) of 105% and a viability, T/C (second compound 0.316 µM, first compound 0.0949 µM) of 94.2%. For the same molecule, the viability, T/C (second compound 0.316 µM, first compound 0.3 µM) was 75.5%, the viability, T/C (second compound 0.316 µM, first compound 0.949 µM) was 63.3% and the viability, T/C (second compound 0.316 µM, first compound 3 µM) was 48.6%. The viability, T/C (second compound 1 µM, first compound 0.00949 µM) was 108%, the viability, T/C (second compound 1 µM, first compound 0.03 µM) was 119% and the viability, T/C (second compound 1 µM, first compound 0.0949 µM) was 96.2%. For the same molecule, the viability, T/C (second compound 1 µM, first compound 0.3 µM) was 76.3%, the viability, T/C (second compound 1 µM, first compound 0.949 µM) was 76% and the viability, T/C (second compound 1 µM, first compound 3 µM) was 54.6%. For the same molecule, the viability, T/C (second compound 3.16 µM, first compound 0.00949 µM) was 103%, the viability, T/C (second compound 3.16 µM, first compound 0.03 µM) was 117% and the viability, T/C (second compound 3.16 µM, first compound 0.0949 µM) was 101%. It also gave a viability, T/C (second compound 3.16 µM, first compound 0.3 µM) of 88.5%, a viability, T/C (second compound 3.16 µM, first compound 0.949 µM) of 73.2% and a viability, T/C (second compound 3.16 µM, first compound 3 µM) of 74.8%. It also gave a viability, T/C (second compound 10 µM, first compound 0.00949 µM) of 121%, a viability, T/C (second compound 10 µM, first compound 0.03 µM) of 123% and a viability, T/C (second compound 10 µM, first compound 0.0949 µM) of 115%. For the same molecule, the viability, T/C (second compound 10 µM, first compound 0.3 µM) was 102%, the viability, T/C (second compound 10 µM, first compound 0.949 µM) was 72% and the viability, T/C (second compound 10 µM, first compound 3 µM) was 77.1%.
